Results published in article PMC7876048, “Mutant-selective degradation by BRAF-targeting PROTACs” (Nature Communications, 2021).

How the values were obtained:
BRAF V600E = BRAF V600E (Homo sapiens, UniProt P15056, V600E); assay: Radiolabeled kinase assay (Reaction Biology); format: biochemical; set-up: purchased Reaction Biology Corps
Procedure: Kinase assays were performed by Reaction Biology Corps by their protocol in duplicate using Km amounts of ATP calculated for each kinase.

[1] = biological target: T1, BRAF^WT (SK-BR-3 cells, HER2 amplification) (Homo sapiens, UniProt P15056); assay: BRAF^WT degradation by immunoblot in SK-BR-3 cells; format: cell-based
T1 construct: endogenous in cells; host or cells: SK-BR-3
T1 sequence (P15056 whole entry): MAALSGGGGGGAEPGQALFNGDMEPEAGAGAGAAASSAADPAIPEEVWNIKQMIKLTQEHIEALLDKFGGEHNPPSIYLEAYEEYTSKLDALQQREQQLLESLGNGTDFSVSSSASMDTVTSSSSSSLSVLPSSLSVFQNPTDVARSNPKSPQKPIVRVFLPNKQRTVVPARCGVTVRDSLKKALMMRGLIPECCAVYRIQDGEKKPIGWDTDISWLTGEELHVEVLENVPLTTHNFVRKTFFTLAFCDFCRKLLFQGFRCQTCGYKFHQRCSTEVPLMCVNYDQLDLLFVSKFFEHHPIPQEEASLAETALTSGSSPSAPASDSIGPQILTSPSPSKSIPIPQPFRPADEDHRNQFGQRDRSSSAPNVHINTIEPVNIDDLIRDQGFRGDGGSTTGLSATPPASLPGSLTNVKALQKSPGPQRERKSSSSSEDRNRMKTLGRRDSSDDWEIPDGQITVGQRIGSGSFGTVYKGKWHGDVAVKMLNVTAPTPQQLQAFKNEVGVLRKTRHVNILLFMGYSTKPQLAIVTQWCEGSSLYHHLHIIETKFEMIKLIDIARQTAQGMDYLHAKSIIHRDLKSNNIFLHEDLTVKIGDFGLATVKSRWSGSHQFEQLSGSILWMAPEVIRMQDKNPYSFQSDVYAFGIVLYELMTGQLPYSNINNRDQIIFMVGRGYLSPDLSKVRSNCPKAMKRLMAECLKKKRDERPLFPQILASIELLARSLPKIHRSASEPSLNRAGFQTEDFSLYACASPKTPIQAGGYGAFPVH
Procedure: (§1) Cells were plated in 6 well dishes (5 × 10^5–8 × 10^5 cells) and allowed to attach overnight. […] The plates were then placed on ice and washed 1x with chilled PBS and lysed in buffer containing 25 mM Tris-HCl [pH 7.4], 0.25% sodium deoxycholate, 150 mM NaCl, 1% Triton X-100, supplemented with protease inhibitors (1x Roche protease inhibitor cocktail) and phosphatase inhibitors (10 mM NaF, 1 mM Na3OV4, and 20 mM β-glycerophosphate). Lysates were then cleared at 21,000 g for 10 min at 4 °C. Protein concentrations of the supernatants were then quantified using a Pierce BCA Protein Assay. 12–40 µg of protein were separated using a gradient (4–20%) Criterion TGX precast gel and transferred unto a nitrocellulose membrane. The membranes were then blocked in 5% non-fat milk in TBST (Tris-buffered Saline with Tween 20) for 1 h before probing with the indicated primary antibody overnight. Membranes were imaged using Bio-Rad Image Lab software using ECL prime detection reagent (GE Healthcare, RPN2232 or ThermoScientific, 34095).
(§2) Western blot data was quantified by using the band feature in Image Lab, and values were averaged and analyzed in GraphPad Prism. DC50 and DMAX values were fitted using a three parameter [inhibitor] versus response and reported directly from the Prism output. Mean ± SD and unpaired t-tests were performed in GraphPad Prism.

[2] = system: BRAF^WT : Cullin-2 association (NIH3T3 cells); assay: V5-BRAF immunoprecipitation, Cullin 2 association; format: cell-based; details: MEK inhibitor (1 µM cobimetinib, 2 h) pretreated NIH3T3 cells
Procedure: Doxycycline-induced NIH3T3 cells or 293 T-Rex cells that express indicated BRAF isoform were seeded in 10 cm dishes overnight. […] Cells were then placed on ice, washed with ice-cold 1X PBS, and lysed in 500 µL modified 1X lysis buffer (50 mM Tris-HCl, pH 7.4, 0.15 M NaCl, 1 mM EDTA, 1% NP40, 10% glycerol) containing 5 mM 1,10-phenanthroline monohydrate, 10 mM N-ethylmaleimide, 20 µM PR-619, and 1X protease inhibitor cocktail (Roche). Lysates were spun down at 14,000 × g at 4 °C for 10 min. Equal amounts of lysate was aliquoted onto 20 µL (bed volume) of anti-V5-beads (Sigma, A7345). V5-containing proteins were immunoprecipitated from lysates for 2 h at 4 °C with gentle rotation, after which samples were spun down at 6000 × g at 4 °C for 2 min and the beads were washed 4 times with DPBS. Beads were resuspended in 1X lithium dodecyl sulfate (LDS) sample buffer containing 5% 2-mercaptoethanol (ß-ME). Immunoprecipitated protein was eluted off the beads by heating at 95 °C for 5 min and the supernatant was run on an SDS-PAGE gel and evaluated for the presence of immunoprecipitated V5-tagged proteins, as well as Cullin 2. Input refers to the normalized input lysate loaded onto V5-sepharose beads.

[3] = biological target: T2, NanoLuc-BRAF^V600E : HaloTag-VHL (HEK293T cells) (Homo sapiens, UniProt P15056+P40337, V600E); assay: NanoBRET ternary complex assay; format: cell-based; details: cells expressing BRAF^V600E, 3 h
T2 construct: Full-length BRAF (WT and V600E) was cloned into the pNLF1-C [CMV/Hygro] vector; host or cells: HEK 293 T, transient co-transfection
T2 sequence (P15056 whole entry V600E): as the sequence (P15056 whole entry) above, with V600E counted along it
T2 sequence (P40337 whole entry): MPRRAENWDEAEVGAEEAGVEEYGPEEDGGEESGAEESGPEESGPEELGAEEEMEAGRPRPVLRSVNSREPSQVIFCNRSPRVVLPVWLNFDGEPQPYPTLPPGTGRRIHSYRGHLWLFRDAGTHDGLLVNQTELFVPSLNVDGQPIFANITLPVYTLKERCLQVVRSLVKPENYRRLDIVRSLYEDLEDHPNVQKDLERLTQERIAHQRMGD
T2 sequence (Q15369 whole entry partner): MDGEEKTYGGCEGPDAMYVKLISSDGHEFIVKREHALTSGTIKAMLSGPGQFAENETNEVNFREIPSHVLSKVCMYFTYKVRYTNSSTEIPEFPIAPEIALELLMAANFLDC
T2 sequence (Q15370 whole entry partner): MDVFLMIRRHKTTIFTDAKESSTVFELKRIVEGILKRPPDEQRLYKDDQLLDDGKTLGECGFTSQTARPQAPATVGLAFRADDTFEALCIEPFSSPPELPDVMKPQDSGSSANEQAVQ
Procedure: (§3) Full-length BRAF (WT and V600E) was cloned into the pNLF1-C [CMV/Hygro] vector. HEK 293 T cells were seeded into 6 well dishes (~75% confluent) and co-transfected with HaloTag-VHL (Promega; N273A) and C-terminal nanoLUC-tagged BRAF. Transfection was performed using a ratio of 1:2 DNA to Lipofectamine 2000. After 24 h, 1 × 10^4 cells were seeded into white 96 well plates (Costar Cat# 3610) in Opti-MEM™ I Reduced Serum Medium supplemented with 4% FBS and […] HaloTag NanoBRET 618 ligand or DMSO. The next day, the cells were pre-treated with 2 μM MG-132 for 1 h then treated with indicated amount of drug for 3 h. 6X NanoBRET Nano-Glo Substrate in Opti-MEM was then added to each well and the plate was read using a Perkin Elmer Envision. Dual filtered luminescence was measured with a 430 nm (donor, […]) and a 615 nm filter (acceptor, […]). Background corrected (cells without HaloTag 618 ligand) nanoBRET ratios were calculated to determine intracellular ternary complex formation.

[4] = biological target: T3, NanoLuc-BRAF^WT : HaloTag-VHL (HEK293T cells) (Homo sapiens, UniProt P15056); assay: NanoBRET ternary complex assay; format: cell-based; details: cells expressing BRAF^WT, concentrations as high as 10 μM, 3 h
T3 construct: Full-length BRAF (WT and V600E) was cloned into the pNLF1-C [CMV/Hygro] vector; host or cells: HEK 293 T, transient co-transfection
Procedure: as §3

[5] = biological target: T4, BRAF-p61^V600E (HCC-364 vr1 cells) (Homo sapiens, UniProt P15056+P40337, DEL169-380/V600E); assay: BRAF degradation by immunoblot in HCC-364 vr1 cells; format: cell-based
T4 construct: endogenous in cells; host or cells: SK-MEL-239 C4; HCC-364 vr1
T4 sequence (P15056 with tags, fused parts or gaps DEL169-380/V600E): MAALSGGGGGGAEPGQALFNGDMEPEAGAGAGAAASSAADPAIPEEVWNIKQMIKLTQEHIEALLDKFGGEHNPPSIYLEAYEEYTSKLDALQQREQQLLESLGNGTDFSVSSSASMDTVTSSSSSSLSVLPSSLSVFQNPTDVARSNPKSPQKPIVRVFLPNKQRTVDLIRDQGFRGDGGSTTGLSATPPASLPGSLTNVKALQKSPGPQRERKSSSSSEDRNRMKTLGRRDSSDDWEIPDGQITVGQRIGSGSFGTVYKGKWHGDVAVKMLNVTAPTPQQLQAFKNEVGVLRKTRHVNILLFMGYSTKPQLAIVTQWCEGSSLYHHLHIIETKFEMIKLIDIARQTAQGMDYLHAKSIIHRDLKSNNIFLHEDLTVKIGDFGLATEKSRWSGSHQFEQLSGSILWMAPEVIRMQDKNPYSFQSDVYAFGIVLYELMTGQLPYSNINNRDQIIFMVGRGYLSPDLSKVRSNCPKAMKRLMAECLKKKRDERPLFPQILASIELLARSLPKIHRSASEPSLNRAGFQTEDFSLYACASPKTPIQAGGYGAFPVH
T4 sequence (P40337 whole entry, stated change not applied): as the sequence (P40337 whole entry) above
T4 sequence (Q15370 whole entry partner): as the sequence (Q15370 whole entry partner) above
T4 sequence (Q15369 whole entry partner): as the sequence (Q15369 whole entry partner) above
Procedure: as §1, §2

[6] = 1 μM cobimetinib pre-treatment 1 hour, then 1 μM SJF-0628

BRAF V600E, sequence (P15056 whole entry V600E): as the sequence (P15056 whole entry) above, with V600E counted along it

CCCS(=O)(=O)Nc1ccc(F)c(C(=O)c2c[nH]c3ncc(-c4ccc(N5CCN(CC(=O)NC(C(=O)N6CC(O)CC6C(=O)NCc6ccc(-c7scnc7C)cc6)C(C)(C)C)CC5)cc4)cc23)c1F (centres unmarked) [SJF-0628]
IC50 (BRAF V600E): 1.87 nM | time at which complete degradation of BRAF^WT observed [1, 6]: 12 h | time to PROTAC-induced degradation of BRAF^WT [1, 6]: ≤ 4 h | degradation of BRAF^WT ([1]; PROTAC concentrations greater than 1 µM): ~ 50% | SJF-0628-dependent BRAF^WT degradation ([1]; lapatinib 2-hour pre-treatment): 10% | SJF-0628-dependent BRAF^WT degradation ([1]; without lapatinib pre-treatment): 48% | increase in PROTAC-induced Cullin-2 association with BRAF^WT [2]: 4 fold | BRET signal [3]: an increase in BRET signal | BRET signal [4]: no observed increase | DC50 [5]: 147 nM | Dmax ([5]; HCC364): > 90%
